How the values were obtained:
[1] = biological target: STE20-like serine/threonine-protein kinase (Homo sapiens) (UniProt Q9H2G2); assay: Inhibition of human STK2 at 1.82 nM by HotSpot assay relative to control
[2] = biological target: T1, NUAK family SNF1-like kinase 1 (Homo sapiens) (UniProt O60285); assay: Inhibition of human ARK5 at 18.6 nM by HotSpot assay relative to control
T1 sequence (whole entry): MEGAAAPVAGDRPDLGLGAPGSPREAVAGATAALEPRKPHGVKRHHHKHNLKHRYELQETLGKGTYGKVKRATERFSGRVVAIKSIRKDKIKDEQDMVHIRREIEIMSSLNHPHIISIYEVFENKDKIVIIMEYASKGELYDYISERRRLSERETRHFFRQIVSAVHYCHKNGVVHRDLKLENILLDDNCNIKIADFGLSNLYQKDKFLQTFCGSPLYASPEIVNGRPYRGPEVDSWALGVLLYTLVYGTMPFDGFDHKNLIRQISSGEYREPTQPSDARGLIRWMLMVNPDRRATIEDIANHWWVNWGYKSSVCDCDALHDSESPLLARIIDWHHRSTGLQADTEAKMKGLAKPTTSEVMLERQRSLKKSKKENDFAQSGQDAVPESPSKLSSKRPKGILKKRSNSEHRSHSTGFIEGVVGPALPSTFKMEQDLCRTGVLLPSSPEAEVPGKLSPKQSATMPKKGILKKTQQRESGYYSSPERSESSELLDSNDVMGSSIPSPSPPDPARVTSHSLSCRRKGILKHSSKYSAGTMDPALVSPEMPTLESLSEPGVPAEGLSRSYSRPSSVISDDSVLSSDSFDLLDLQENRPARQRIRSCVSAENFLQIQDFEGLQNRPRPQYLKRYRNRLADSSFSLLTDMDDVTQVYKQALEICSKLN

[3] = biological target: Focal adhesion kinase 1 (Homo sapiens) (UniProt Q05397); assay: Inhibition of human FAK at 18.6 nM by HotSpot assay relative to control
Sequence of Focal adhesion kinase 1 (Homo sapiens) (Q05397 2-1052 limits assumed): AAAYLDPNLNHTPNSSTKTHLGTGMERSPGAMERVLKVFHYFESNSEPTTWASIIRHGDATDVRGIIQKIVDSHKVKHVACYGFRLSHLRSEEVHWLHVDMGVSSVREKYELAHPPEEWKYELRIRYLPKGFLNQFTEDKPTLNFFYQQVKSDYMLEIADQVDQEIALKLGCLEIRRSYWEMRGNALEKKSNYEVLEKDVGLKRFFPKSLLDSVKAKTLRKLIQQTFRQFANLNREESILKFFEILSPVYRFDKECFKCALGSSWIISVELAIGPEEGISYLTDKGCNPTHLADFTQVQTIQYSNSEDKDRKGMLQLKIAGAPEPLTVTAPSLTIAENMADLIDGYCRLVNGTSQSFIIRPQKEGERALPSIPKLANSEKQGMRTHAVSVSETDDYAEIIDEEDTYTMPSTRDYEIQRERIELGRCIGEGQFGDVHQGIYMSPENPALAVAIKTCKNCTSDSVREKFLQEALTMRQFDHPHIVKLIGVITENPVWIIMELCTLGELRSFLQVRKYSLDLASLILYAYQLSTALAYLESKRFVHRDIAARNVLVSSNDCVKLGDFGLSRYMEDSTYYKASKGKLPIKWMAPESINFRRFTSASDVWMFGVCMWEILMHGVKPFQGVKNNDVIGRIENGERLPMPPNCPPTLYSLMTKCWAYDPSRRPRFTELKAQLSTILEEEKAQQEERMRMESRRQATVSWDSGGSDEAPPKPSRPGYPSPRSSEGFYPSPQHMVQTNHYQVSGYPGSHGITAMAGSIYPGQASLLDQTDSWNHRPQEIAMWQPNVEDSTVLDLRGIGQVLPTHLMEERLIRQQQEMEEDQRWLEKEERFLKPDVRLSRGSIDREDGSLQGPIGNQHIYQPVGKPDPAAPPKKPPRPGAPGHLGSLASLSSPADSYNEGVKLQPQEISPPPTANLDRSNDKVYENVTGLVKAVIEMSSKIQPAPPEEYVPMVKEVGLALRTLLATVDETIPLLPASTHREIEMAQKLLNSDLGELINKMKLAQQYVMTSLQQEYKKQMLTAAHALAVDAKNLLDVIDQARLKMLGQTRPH

[4] = biological target: Dual specificity mitogen-activated protein kinase kinase 1 (Homo sapiens) (UniProt Q02750); assay: Inhibition of human MEK1 at 18.6 nM by HotSpot assay relative to control
Sequence of Dual specificity mitogen-activated protein kinase kinase 1 (Homo sapiens) (Q02750 whole entry): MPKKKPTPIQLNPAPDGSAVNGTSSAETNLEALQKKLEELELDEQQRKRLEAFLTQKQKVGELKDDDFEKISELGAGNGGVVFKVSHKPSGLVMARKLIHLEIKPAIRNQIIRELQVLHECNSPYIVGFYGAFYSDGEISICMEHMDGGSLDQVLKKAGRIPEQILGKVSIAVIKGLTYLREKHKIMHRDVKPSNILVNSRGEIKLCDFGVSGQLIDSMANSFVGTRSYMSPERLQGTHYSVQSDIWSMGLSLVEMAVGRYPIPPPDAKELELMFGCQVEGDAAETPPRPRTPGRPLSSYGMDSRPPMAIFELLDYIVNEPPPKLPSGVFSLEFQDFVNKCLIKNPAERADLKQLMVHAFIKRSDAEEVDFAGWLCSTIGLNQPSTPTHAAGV

[5] = biological target: T2, Serine/threonine-protein kinase TAO3 (Homo sapiens) (UniProt Q9H2K8); assay: Inhibition of human JIK at 18.6 nM by HotSpot assay relative to control
T2 sequence (whole entry): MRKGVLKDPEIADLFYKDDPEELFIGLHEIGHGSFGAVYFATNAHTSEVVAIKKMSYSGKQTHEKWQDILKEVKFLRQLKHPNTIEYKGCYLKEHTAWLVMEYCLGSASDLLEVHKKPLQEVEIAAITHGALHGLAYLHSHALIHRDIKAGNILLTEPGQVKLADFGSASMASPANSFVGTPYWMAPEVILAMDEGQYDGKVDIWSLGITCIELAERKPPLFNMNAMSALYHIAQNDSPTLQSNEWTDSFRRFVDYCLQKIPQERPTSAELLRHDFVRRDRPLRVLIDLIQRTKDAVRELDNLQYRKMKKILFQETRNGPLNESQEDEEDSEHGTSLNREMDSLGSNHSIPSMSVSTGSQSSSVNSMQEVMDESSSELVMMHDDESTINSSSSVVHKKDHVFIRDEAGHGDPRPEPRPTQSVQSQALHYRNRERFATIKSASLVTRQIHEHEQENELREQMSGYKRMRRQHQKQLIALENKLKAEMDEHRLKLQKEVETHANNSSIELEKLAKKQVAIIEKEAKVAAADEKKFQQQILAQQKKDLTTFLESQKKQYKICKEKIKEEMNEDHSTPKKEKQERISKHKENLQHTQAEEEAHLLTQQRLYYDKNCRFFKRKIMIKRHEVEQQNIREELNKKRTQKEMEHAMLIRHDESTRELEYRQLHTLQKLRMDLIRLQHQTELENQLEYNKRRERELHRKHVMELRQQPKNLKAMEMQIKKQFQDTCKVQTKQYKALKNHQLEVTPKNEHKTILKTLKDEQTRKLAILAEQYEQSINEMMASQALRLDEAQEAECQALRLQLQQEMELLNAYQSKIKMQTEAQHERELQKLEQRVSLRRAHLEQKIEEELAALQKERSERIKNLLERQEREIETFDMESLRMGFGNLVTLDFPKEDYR

[6] = biological target: T3, Tyrosine-protein kinase Tec (Homo sapiens) (UniProt P42680); assay: Inhibition of human TEC at 18.6 nM by HotSpot assay relative to control
T3 sequence (whole entry): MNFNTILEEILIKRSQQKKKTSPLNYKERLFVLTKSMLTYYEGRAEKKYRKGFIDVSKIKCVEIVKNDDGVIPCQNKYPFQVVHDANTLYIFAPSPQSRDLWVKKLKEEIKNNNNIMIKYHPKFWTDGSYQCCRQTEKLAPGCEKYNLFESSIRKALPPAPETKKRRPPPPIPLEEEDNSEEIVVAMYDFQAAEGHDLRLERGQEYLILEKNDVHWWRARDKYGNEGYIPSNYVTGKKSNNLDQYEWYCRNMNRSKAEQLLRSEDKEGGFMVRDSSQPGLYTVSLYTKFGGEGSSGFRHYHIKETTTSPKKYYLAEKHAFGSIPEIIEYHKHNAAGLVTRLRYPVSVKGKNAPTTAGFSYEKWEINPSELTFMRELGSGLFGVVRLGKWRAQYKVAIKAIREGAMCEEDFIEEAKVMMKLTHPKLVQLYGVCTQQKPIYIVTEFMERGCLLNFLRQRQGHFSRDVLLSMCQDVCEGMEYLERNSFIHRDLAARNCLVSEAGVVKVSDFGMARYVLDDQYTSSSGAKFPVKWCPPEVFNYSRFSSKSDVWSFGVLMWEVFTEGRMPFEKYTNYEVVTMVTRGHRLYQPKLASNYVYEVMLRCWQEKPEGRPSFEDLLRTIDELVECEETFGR

[7] = biological target: Serine/threonine-protein kinase PAK 4 (Homo sapiens) (UniProt O96013); assay: Inhibition of human PAK4 at 18.6 nM by HotSpot assay relative to control
Sequence of Serine/threonine-protein kinase PAK 4 (Homo sapiens) (O96013 whole entry, looked up): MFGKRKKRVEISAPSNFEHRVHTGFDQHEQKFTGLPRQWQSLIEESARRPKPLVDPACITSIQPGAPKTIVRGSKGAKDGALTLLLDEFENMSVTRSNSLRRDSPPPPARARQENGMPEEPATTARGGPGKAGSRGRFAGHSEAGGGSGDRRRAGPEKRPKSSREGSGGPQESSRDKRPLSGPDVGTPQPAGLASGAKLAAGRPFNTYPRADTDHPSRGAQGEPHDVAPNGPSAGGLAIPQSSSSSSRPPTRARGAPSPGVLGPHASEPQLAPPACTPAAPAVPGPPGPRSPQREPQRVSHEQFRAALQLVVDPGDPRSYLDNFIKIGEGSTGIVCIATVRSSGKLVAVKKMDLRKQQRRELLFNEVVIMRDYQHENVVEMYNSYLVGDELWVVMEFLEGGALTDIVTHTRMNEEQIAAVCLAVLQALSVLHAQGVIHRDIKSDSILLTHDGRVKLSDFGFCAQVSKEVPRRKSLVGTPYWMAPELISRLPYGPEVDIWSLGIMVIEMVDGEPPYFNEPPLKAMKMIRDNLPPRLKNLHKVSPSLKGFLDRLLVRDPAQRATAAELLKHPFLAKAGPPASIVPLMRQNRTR

[8] = biological target: Ephrin type-A receptor 5 (Homo sapiens) (UniProt P54756); assay: Inhibition of human EPHA5 at 18.6 nM by HotSpot assay relative to control
[9] = biological target: Ephrin type-A receptor 7 (Homo sapiens) (UniProt Q15375); assay: Inhibition of human EPHA7 at 18.6 nM by HotSpot assay relative to control
Sequence of Ephrin type-A receptor 7 (Homo sapiens) (Q15375 28-998 limits assumed): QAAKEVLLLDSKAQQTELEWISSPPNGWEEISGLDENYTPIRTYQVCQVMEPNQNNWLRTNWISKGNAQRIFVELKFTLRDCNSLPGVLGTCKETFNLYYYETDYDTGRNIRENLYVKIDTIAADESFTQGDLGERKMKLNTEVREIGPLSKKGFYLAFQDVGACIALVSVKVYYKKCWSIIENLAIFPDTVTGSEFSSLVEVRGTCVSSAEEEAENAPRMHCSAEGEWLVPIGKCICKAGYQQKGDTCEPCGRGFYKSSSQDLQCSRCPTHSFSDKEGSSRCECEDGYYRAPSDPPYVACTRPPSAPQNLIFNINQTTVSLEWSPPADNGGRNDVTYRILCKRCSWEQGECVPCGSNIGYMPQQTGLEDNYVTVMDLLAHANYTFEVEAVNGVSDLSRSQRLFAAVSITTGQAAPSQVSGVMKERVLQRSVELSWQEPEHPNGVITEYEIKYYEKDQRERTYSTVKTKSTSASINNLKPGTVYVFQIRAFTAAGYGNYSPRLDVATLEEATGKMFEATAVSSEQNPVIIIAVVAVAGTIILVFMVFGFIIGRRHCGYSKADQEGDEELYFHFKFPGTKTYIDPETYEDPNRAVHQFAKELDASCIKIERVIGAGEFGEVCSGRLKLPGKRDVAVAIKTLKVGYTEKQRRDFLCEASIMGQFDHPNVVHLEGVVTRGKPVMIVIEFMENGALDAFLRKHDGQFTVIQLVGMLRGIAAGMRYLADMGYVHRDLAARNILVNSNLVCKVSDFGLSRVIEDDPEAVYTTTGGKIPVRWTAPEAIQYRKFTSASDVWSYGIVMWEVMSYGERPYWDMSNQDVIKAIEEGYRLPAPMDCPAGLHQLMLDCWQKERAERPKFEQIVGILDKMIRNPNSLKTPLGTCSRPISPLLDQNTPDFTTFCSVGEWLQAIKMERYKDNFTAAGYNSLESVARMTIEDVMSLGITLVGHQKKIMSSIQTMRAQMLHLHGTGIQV

[10] = biological target: PAS domain-containing serine/threonine-protein kinase (Homo sapiens) (UniProt Q96RG2); assay: Inhibition of human PASK at 18.6 nM by HotSpot assay relative to control
Sequence of PAS domain-containing serine/threonine-protein kinase (Homo sapiens) (Q96RG2 whole entry, the tested form may be a part): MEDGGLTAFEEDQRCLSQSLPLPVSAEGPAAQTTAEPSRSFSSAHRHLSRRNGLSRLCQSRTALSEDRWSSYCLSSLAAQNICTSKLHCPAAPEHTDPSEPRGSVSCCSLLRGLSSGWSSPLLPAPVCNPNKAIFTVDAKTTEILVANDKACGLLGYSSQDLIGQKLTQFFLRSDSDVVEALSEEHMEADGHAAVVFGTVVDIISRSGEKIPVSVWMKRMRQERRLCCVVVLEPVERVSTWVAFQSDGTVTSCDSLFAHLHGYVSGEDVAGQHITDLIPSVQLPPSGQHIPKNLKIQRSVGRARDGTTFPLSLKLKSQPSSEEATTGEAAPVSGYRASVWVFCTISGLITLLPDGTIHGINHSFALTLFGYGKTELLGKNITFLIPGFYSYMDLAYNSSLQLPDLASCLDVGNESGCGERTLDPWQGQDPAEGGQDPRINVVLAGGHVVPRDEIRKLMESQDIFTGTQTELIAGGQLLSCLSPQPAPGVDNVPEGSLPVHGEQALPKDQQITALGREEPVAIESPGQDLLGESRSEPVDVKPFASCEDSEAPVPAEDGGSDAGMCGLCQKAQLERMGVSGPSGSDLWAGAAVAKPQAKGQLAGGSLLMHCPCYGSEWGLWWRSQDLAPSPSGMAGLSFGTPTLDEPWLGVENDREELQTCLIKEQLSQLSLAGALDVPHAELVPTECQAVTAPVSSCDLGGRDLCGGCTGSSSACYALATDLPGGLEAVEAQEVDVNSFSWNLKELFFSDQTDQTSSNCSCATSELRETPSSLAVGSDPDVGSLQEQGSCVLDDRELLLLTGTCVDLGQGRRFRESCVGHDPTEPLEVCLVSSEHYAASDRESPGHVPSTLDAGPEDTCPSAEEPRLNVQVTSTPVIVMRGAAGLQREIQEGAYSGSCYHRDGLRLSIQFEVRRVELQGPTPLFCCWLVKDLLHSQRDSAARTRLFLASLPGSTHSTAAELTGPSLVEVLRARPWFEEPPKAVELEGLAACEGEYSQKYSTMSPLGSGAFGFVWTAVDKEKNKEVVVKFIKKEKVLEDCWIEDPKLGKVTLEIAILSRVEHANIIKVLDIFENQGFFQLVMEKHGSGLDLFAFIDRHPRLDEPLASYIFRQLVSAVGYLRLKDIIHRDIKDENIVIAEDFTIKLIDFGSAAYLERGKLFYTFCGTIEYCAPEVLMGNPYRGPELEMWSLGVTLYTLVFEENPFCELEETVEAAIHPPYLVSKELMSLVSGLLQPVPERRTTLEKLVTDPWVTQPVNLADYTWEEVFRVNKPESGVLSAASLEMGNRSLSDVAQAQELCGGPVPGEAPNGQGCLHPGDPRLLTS

| SMILES | inhibition [1] [%] | inhibition [2] [%] | inhibition [3] [%] | inhibition [4] [%] | inhibition [5] [%] | inhibition [6] [%] | inhibition [7] [%] | inhibition [8] [%] | inhibition [9] [%] | inhibition [10] [%] |
| --- | --- | --- | --- | --- | --- | --- | --- | --- | --- | --- |
| C[C@@]1(C(=O)Nc2ccc(F)nc2)CCCN1c1nc(Nc2cc(C3CC3)n[nH]2)c2cccn2n1 | 15.4 | – | – | – | – | – | – | – | – | – |
| C[C@]1(O)C[C@@H](c2nc(-c3ccc4ccc(-c5ccccc5)nc4c3)c3c(N)nccn32)C1 | – | -1.57 | 1.73 | -8.63 | 4.89 | 2.21 | -5.78 | 0.67 | 2.17 | -4.72 |
